This note sets out measurements from patent publication US20030170250A1, “Local delivery of long lasting therapeutic agents” (priority 1998, published 2003).

The test system of this data set is carotid artery. Description: In vivo addition of NHS-Rhodamine: local incubation in isolated carotid artery chamber, fluorescence of the artery. On the set-up: species or system New Zealand rabbits. Particulars: 100 μl of 500 μM, 3 minutes incubation in 1-cm chamber, washed with 0.9% sodium chloride. As to the method:
Both carotid arteries were isolated and blood flows were measured. A catheter (22G) was inserted in the arterial segment and rinsed with 0.9% sodium chloride via catheter until there was no more visible evidence of blood in the segment.
A 1-cm incubation chamber was created by ligatures in the segment area. The incubation chamber was flushed three times with 1 mL of 0.9% sodium chloride. A solution of 100 μl of 500 μM NHS-Rhodamine was prepared and incubated in the incubation chamber for 3 minutes. The excess of rhodamine was withdrawn with a 1 mL syringue. The incubation chamber was washed once again with 3 times […] of 0.9% sodium chloride. The incubation chamber was then removed from the rabbit, cut in three pieces and dipped in 10% formalin for further evaluation.

With Rhodamine, the “fluorescence of treated arteries” value is “little fluorescence over background”.
With “Rhodamine Green™-X, succinimidyl ester, hydrochloride mixed isomers [NHS-Rhodamine]”, the “fluorescence of treated arteries” value is “dramatic levels of fluorescence”.
